Measurements published in US9295730B2, “Conjugated molecules comprising a peptide derived from the CD4 receptor coupled to a polyanion for the treatment of AIDS” (Institut Pasteur, priority 2008, dated 2016).
Ends that are not written are not given here.

Assays:
Assay type in all cases: cell-based
X4-tropic HIV-1-LAI = experiment: Antiviral assay, PHA-P-activated PBMC infected with HIV-1-LAI, RT activity in supernatants; conditions: Table 7, VIH-1-LAI; for EC50: read-out: ED50 (the source's name)
[1] = tested on: uninfected PHA-P-activated PBMC; experiment: Cytotoxicity, MTT assay on day 7
Method: (§1) In parallel, cytotoxicity of the samples was evaluated in uninfected PHA-P-activated PBMC by a methyltetrazolium salt (MTT) assay on day 7. Experiments were performed in triplicate and 50, 70 and 90% effective doses and cytotoxic doses were calculated using SoftMaxPro software.

R5-tropic HIV-1/Ba-L = experiment: Antiviral assay, PHA-P-activated PBMC infected with HIV-1/Ba-L, RT activity in supernatants; conditions: Table 7, VIH-1/Ba-L
[2] = Cytotoxicity, MTT assay on day 7; conditions: human, uninfected PHA-P-activated PBMC
Method: as §1

Substance	ED70 (X4-tropic HIV-1-LAI) [nM]	ED90 (X4-tropic HIV-1-LAI) [nM]	EC50 (X4-tropic HIV-1-LAI) [nM]	Cytotoxicity CT50 [1] [nM]	Cytotoxicity CT70 [1] [nM]	Cytotoxicity CT90 [1] [nM]	ED70 (R5-tropic HIV-1/Ba-L) [nM]	ED90 (R5-tropic HIV-1/Ba-L) [nM]	EC50 (R5-tropic HIV-1/Ba-L; read-out: ED50 (the source's name)) [nM]	CC50 at 168 h [2] [nM]
5-aminopentyl[(3-O-benzyl-4-O-(4-methoxybenzyl)-2-O-sulfonato-α-L-idopyranosyluronate)-(1→4)-O-(3-O-benzyl-2-deoxy-2-sulfoamino-6-O-sulfonato-α-D-glucopyranoside)-(1→4)-O-(3-O-benzyl-2-O-sulfonato-α-L-idopyranosyluronate)]-(1→4)-O-3-O-benzyl-2-deoxy-2-sulfoamino-6-O-sulfonato-α-D-glucopyranoside heptasodium salt [HS4Bz]	>1000	>1000	> 1000	>1000	>1000	>1000	–	–	–	–
MEDLEETLFEEFENYSYDLDYYSLESC [GPR1]	>1000	>1000	> 1000	–	>1000	>1000	>1000	>1000	> 1000	> 1000
